In publication PMC2697320, “Identification of the high affinity binding site in the Streptococcus intermedius toxin intermedilysin for its membrane receptor, the human complement regulator CD59” (Molecular Immunology, 2009):
Where no end group is shown, it is not given here.

How the values were obtained:
human erythrocytes = test: Hemolytic assay for complement (C) activity, antibody-sensitised human erythrocytes; assay type: cell-based; conditions: at the dilutions used in these assays
Procedure: Hemolytic assays for C activity were performed using human erythrocytes sensitised with an in-house rabbit polyclonal antiserum against human CD55 as described ([Cole et al., 2006]). Sensitised erythrocytes (2% in CFD; 50 μl/well) were incubated for 30 min with various dilutions of human serum in CFD in the absence or presence of test peptides or blocking anti-CD59 antibodies. Plates were centrifuged and percent lysis calculated as above. Statistical analyses were carried out using unpaired Student's t-tests.

CD59 = target: T1, CD59 (Homo sapiens, UniProt P13987); test: biochemical; assay type: binding; conditions: SPR steady state, immobilised CD59, 25 °C; read-out: KD, printed in Fig. 3C
T1 construct: Recombinant soluble CD59 comprising amino acids 1–76 with an 11 amino acid Ser/Gly linker; made in house
T1 sequence (P13987 26-101): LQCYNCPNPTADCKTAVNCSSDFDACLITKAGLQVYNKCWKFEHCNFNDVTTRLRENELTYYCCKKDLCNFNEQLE
Procedure: All surface plasmon resonance (SPR) analyses were carried out on a Biacore T100 (Biacore International SA, Stevenage, UK). Proteins were coupled to the sensor chip surface using thiol-based coupling chemistry. Briefly, recombinant CD59 was subjected to mild reduction for 16 h at 20 °C using TCEP at a molar ratio TCEP:CD59 of 3:1 [120 μm:40 μM] to reduce the terminal Cys residue while leaving internal disulphide bonds intact. An S-series CM5 carboxy-dextran coated chip was then activated using NHS/EDC (N-hydroxysuccinimide/1-ethyl-3(3-dimethyl aminopropyl)-carbodiimide hydrochloride) according to the manufacturer's protocol. The activated surface was further modified by flowing 80 mM 2-(2-pyridinyldithio)-ethaneamine hydrochloride (PDEA) in 0.1 M sodium borate (pH 8.5) to introduce reactive disulphide groups into the matrix. Reduced CD59 was flowed over this surface at pH 3.4 (10 mM NaCitrate) and coupling through the free amino-terminal thiol in the reduced CD59 monitored in real time. Blocking of residual activated residues was achieved by flowing 50 mM L-cysteine in 100 mM NaAcetate pH 4 containing 1 M NaCl. […] For all kinetic analyses, data were collected at 25 °C at a flow rate of 30 μl/min. […] Interactions were analysed in HBS containing 0.05% surfactant P20 and 3 mM EDTA. Data were evaluated using Biacore T100 Evaluation software.

With GLAWEPWRLIYSKNDLPLVPC [ILY peptide] the “lysis by peptide itself above background” value (human erythrocytes) was “neither “sense” nor jumbled peptide caused any lysis above background” and the Kd (CD59) was 4.92 µM.
